In general, IC50 refers to the point on the concentration scale where inhibition reaches its midpoint. A high value points to a need for much substance. In general, Ki refers to a dissociation constant, usually derived from enzyme kinetics or from competition with a known ligand.

Structures are written as SMILES.

Type in all cases: in vitro ADME
Series [1] addresses T1, CYP2C9 (Homo sapiens, UniProt P11712).
T1 construct: consisting of pooled HLMs (0.5 mg/ml) or RLMs (1 mg/ml) and an NADPH-regenerating system; tissue Corning Gentest Corporation; host or cells: pooled human liver microsomes (n = 20)
Kind of series: CYP2C9 inhibition (tolbutamide methyl-hydroxylation) in pooled human liver microsomes, cocktail LC-MS/MS. The procedure:
(§1) Microsomal incubation was carried out at 37 °C in a mixture of 200 μl in 0.05 M Tris/HCl buffer (pH 7.4) consisting of pooled HLMs (0.5 mg/ml) or RLMs (1 mg/ml) and an NADPH-regenerating system including MgCl2 (5 mM), G6P (10 mM), G6PDH (0.4 U/ml) and NADP (1 mM). Substrates were added into the incubation mixture and obtained the final concentrations (10 μM phenacetin for CYP1A2, 20 μM bupropion for CYP2B1/6, 20 μM tolbutamide for CYP2C9/11, 5 μM dextromethorphan for CYP2D1/6, 20 μM chlorzoxazone for CYP2E1 and 10 μM midazolam for CYP3A2/4), which were close to Km respectively. The proportion of organic solvent was not higher than 1% (v/v) in the incubation mixture. After pre-incubation for 5 min, the reaction was initiated by addition of NADP. Incubations were performed for 20 min, stopped by adding 200 μl ice-cold acetonitrile. And then 20 μl internal standard solution was added (3-acetamidophenol 2 μg/ml, chlorpropamide 2 μg/ml and mebendazole 2 μg/ml). The solution was mixed thoroughly for 3 min and centrifuged for 10 min at 16,000 × g at 4 °C. The supernatant (60 μl) was transferred to autosampler vials, and 2 μl was injected into LC-MS/MS system.
(§2) The IC50 (concentration of inhibitor to cause 50% inhibition of original enzyme activity) values were determined with the same incubation condition above. The specific concentrations of plumbagin were ranged from 0.1 μM to 50 μM. The IC50 values were calculated by plotting relative activities over the logarithm of plumbagin concentrations using GraphPad Prism 5.0 (GraphPad software Inc., CA, USA).
(§3) Cocktail probe substrates were then added and incubated for 20 min. Reactions were stopped with 200 μl ice-cold acetonitrile. The samples were treated according to the microsomal incubation method and then injected into LC-MS/MS for analysis.
(§4) Kinetic studies were performed for determining the types of inhibition on CYP by plumbagin. Pooled HLMs (0.5 mg/ml) or RLMs (1 mg/ml) with plumbagin (1 μM, 2 μM, 5 μM and 10 μM) were incubated in 0.05 M Tris/HCl buffer (pH 7.4) for 20 min at 37 °C. A series of concentrations for cocktail probe substrates were used: 2.5–20 μM phenacetin for CYP1A2; 5–40 μM bupropion for CYP2B1/6; 5–40 μM tolbutamide for CYP2C9/11; 1.25–10 μM dextromethorphan for CYP2D1/6; 5–40 μM chlorzoxazone for CYP2E1; 2.5–80 μM midazolam for CYP3A2; and 0.625–5 μM midazolam for CYP3A4. Enzyme kinetics as well as statistical analysis were performed using GraphPad Prism 5.0.
(§5) All data were presented as mean ± SD. The IC50 values were fitted by non-linear regression analysis using GraphPad Prism 5.0. The kinetic parameters were obtained by fitting velocity data to kinetic models (Michaelis-Menten) using GraphPad Prism 5.0. The Lineweaver-Burk Plot (the reciprocal of reaction velocities versus the reciprocal of substrates concentrations) was used to determine the quality of fit to a specific inhibition model. The inhibition constant (Ki) was obtained by a secondary plot using the slopes of the primary Lineweaver-Burk Plot (Km/Vmax versus inhibitor concentrations). αKi was obtained from a secondary plot using the y-intercepts of the Lineweaver-Burk plot (1/Vmax versus inhibitor concentrations). All results were analyzed in quadruplicate. One-way analysis of variance was used to estimate the significance of differences. There was statistical significance between control and test groups if p < 0.05.
(In general: Liver microsomes are vesicles of endoplasmic reticulum, rich in cytochrome P450 enzymes.)

In series [2] the target is T2, CYP2D6 (Homo sapiens, UniProt P10635).
T2 construct: consisting of pooled HLMs (0.5 mg/ml) or RLMs (1 mg/ml) and an NADPH-regenerating system; tissue Corning Gentest Corporation; host or cells: pooled human liver microsomes (n = 20)
Kind of series: CYP2D6 inhibition (dextromethorphan O-demethylation) in pooled human liver microsomes, cocktail LC-MS/MS. As to the method:
as §1, §2, §3, §4, §5

Series [3] has as its target T3, CYP1A2 (Rattus norvegicus, UniProt P04799).
T3 construct: consisting of pooled HLMs (0.5 mg/ml) or RLMs (1 mg/ml) and an NADPH-regenerating system; from tissue; host or cells: rat liver microsomes prepared in house
T3 sequence (P04799 1-513): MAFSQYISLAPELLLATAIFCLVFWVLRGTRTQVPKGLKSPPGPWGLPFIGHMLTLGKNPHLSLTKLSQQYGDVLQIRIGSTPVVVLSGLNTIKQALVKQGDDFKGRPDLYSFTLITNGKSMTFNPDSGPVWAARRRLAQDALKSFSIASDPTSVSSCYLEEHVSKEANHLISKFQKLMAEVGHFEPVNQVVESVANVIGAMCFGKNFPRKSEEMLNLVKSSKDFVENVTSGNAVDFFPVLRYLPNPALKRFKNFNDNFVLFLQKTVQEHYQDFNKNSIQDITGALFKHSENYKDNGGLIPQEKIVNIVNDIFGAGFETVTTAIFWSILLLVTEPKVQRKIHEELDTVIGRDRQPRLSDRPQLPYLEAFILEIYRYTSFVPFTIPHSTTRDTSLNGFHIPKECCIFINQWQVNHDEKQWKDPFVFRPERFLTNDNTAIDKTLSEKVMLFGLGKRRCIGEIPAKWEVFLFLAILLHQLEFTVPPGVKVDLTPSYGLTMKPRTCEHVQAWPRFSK
The experiment in a line: CYP1A2 inhibition (phenacetin O-deethylation) in rat liver microsomes, cocktail LC-MS/MS. The procedure: In this study, the rats were fasted overnight and killed by cervical dislocation before removal of the liver. The liver was excised, rinsed with ice-cold saline (0.9% NaCl w/v), weighed and homogenized in a […] Tris/KCl buffer (pH 7.4). Subsequently, the homogenate was centrifuged at 10,000 × g at 4 °C for 30 min. The supernatant was then centrifuged at 105,000 × g at 4 °C for 60 min. The pellet was reconstituted with […] Tris/KCl buffer (pH 7.4) and stored at −150 °C until use. The protein concentration of the liver microsomes was determined by a protein quantitative assay using bicinchoninic acid[22].
as §1, §2, §3, §4
as §5, with “There was statistical significance between control and test groups if p < 0.05.” left out

T1 sequence (P11712 whole entry): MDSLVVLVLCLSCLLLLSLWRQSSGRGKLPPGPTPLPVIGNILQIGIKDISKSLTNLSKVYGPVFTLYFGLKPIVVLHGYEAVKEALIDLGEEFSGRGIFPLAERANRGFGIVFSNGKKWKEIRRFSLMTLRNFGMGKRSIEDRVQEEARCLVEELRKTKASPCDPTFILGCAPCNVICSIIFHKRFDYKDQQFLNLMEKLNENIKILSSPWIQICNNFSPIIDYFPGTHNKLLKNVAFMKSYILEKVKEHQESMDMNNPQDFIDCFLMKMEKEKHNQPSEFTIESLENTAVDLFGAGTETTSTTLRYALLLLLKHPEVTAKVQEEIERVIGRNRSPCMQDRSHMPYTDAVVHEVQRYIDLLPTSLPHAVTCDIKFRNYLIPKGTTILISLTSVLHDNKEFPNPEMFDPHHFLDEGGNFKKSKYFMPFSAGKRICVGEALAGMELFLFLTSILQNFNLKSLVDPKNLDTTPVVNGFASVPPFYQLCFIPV
T2 sequence (P10635 whole entry): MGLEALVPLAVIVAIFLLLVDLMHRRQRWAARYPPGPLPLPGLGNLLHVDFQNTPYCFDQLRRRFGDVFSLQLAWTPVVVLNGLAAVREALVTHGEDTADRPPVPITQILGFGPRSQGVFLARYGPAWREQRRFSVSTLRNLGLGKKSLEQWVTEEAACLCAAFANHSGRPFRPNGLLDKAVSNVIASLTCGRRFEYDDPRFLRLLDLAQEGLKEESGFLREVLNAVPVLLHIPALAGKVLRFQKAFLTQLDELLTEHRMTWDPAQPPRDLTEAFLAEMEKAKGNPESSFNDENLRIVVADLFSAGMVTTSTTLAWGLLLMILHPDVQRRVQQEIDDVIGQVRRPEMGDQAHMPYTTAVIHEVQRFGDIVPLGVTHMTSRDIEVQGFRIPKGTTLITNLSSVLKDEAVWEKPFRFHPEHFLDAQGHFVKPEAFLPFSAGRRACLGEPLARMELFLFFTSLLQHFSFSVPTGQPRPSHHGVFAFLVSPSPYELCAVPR

`CC1=CC(=O)c2c(O)cccc2C1=O` [plumbagin, 5-hydroxy-2-methyl-1,4-naphthoquinone]: the IC50 in series [1] was determined as 10900 nM; in series [2] it was 10200 nM; in series [3], 2650 nM. In addition, the Ki in series [1] was 2160 nM; in series [2] (HLMs, secondary Lineweaver-Burk plot, dextromethorphan 1.25-10 μM), 1460 nM; in series [3] it was 2640 nM. Further, the Type of inhibition result was “mixed-type” in series [1]; “mixed-type” in series [2]; “mixed-type” in series [3] (RLMs, Lineweaver-Burk). The αKi in series [1] (HLMs, secondary plot of y-intercepts, tolbutamide 5-40 μM) was 1.46 µM; in series [2] (human, 20 min, pH 7.4), 2.22 µM; in series [3] (RLMs, secondary plot of y-intercepts, phenacetin 2.5-20 μM) it was 8.51 µM. In addition, the α in series [1] (human, 20 min, pH 7.4) turned out to be 1.48; in series [2] (human, 20 min, pH 7.4), 0.66; in series [3] (RLMs), 0.31. Besides, the Time-dependent inhibition result in series [3] (RLMs, pre-incubation with NADPH 0, 5, 10, 20 min, plumbagin 0.2, 0.5, 1 μM) was “no time-dependent inhibition”.
